Data as given in PubChem BioAssay (NCI).
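Growth conditions: 96-well plates. Treatment: test compound, 48 hours, 5 concentrations. Analysis: linear interpolation between bracketing concentrations; unreached endpoints set to highest concentration. GI50 = concentration required for 50% inhibition of growth. TGI marks complete inhibition of growth.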

What was measured:
Assay in all cases: NCI-60 cell line screen, 48 h
[1] = system: IGROV1 ovarian
[2] = system: SK-MEL-5 melanoma
[3] = system: HCT-116 colon
[4] = system: HL-60(TB) leukemia
[5] = system: CCRF-CEM leukemia
[6] = system: ACHN renal
[7] = system: DU-145 prostate
[8] = system: KM12 colon
[9] = system: RPMI-8226 leukemia
[10] = system: CAKI-1 renal

Compound	GI50 [1] [µM]	TGI [1] [µM]	GI50 [2] [µM]	TGI [2] [µM]	GI50 [3] [µM]	TGI [3] [µM]	GI50 [4] [µM]	TGI [4] [µM]	GI50 [5] [µM]	TGI [5] [µM]	GI50 [6] [µM]	TGI [6] [µM]	GI50 [7] [µM]	TGI [7] [µM]	GI50 [8] [µM]	TGI [8] [µM]	GI50 [9] [µM]	TGI [9] [µM]	GI50 [10] [µM]	TGI [10] [µM]
Nc1nc(-c2ccccc2Cl)cc(-c2ccc(Cl)cc2Cl)n1	12.3	> 100	4.78	20.8	4.27	> 100	3.14	17.3	4.17	> 100	10.4	> 100	5.33	70.1	4.1	31.3	3.1	17.6	9.27	> 100
COc1cccc(-c2nn(C)c3sc(C(=O)NCCN4CCN(c5ccccc5F)CC4)cc23)c1	> 100	> 100	6.38	26.2	9.91	> 100	33.1	> 100	8.54	> 100	19.2	> 100	34.2	> 100	10.1	> 100	6.51	> 100	9.02	91.5
COc1cc(Cl)c(C)cc1NC(=O)c1cc2ccccc2cc1O	3.04	34.4	1.72	3.93	1.95	7.1	1.89	6.92	3.11	19.6	2.67	11.4	3.4	14.4	2.6	8.15	1.46	6.17	1.65	10.6
O=C1COCCN1c1ccc(NCc2cn(Cc3ccc(F)cc3)c3ccccc23)cc1	0.0668	1.05	2.6	11.2	0.0618	14	4.8	24.3	5.4	> 96.4	2.91	31.4	5.33	> 69.1	15	> 75.9	0.662	8.8	0.0252	0.418
c1ccc2c(c1)-c1nc3ccccc3cc1C2N1CCOCC1 (stereo not given)	–	> 100	–	> 100	–	> 100	–	> 100	–	> 100	–	> 100	–	> 100	–	> 100	–	> 100	–	> 100
COc1ccc2nc3c(cc2c1)C(=O)CC(C(F)(F)F)C3 (stereo not given)	0.792	> 100	0.545	9.75	0.142	> 100	0.333	> 46.8	0.223	> 100	1.02	> 100	0.714	> 100	0.351	> 100	13.7	> 100	0.639	> 100
